Measured values reported in patent US11065253B2, “Arylquinazolines” (Merck Patent GmbH, priority 2013, dated 2021).
Where two headings read alike, the source gives them in different places.

System: phospho-serine 2056 DNA-PK in HCT116 cells
Assay: DNA-PK phosphorylation at serine 2056 (cellular), ELISA in bleomycin-treated HCT116 cells
Format: cell-based
Conditions: cellular, HCT116 cells, 10 μM bleomycin, six hours, read-out: IC50 pDNA-PK
Experimental: HCT116 cells were cultivated at 37° C. and 10% CO2 in MEM alpha medium with 10% of foetal calf serum and 2 mM glutamine. The cells were detached from the base of the culture vessels with the aid of trypsin/EDTA, centrifuged off in centrifuge tubes, taken up in fresh medium, and the cell density was determined. 100,000 cells were sown in 1 ml of culture medium per cavity of a 24-well cell culture plate and cultivated overnight. Next day, 10 μM bleomycin (DNA intercalator and inductor of DNA double-strand breaks) and test substances in fresh culture medium were added to the cells, and these were cultivated for a further six hours. […] The 96-well ELISA plates were subsequently treated with a detection antibody (Abcam ab79444: total DNA-PK) and a streptavidin-HRP conjugate. The development of the enzymatic reaction was carried out with the aid of a chemiluminescent reagent, the chemiluminescence was measured with the aid of a Mithras LB940. The signals with the phospho-DNA-PK-specific antibody were standardised to the signal with the antibody against the total protein DNA-PKc. […] The DMSO control was used as blank.

Row | SMILES | IC50 (Homo sapiens, HCT-116, 6 h) [nM] | IC50 [nM]
1 | COc1nccnc1C(O)c1ccc(F)c(-c2ncnc3cc(N4CCOCC4)ccc23)c1 (stereo not drawn) [Example 15, [4-Fluoro-3-(7-morpholin-4-yl-quinazolin-4-yl)phenyl]-(3-methoxy-pyrazin-2-yl)methanol] | < 500 | –
2 | OC(c1ccc(F)c(-c2ncnc3cc(N4CCOCC4)ccc23)c1)c1c(Cl)cncc1Cl (stereo not drawn) [Example 17, (3,5-Dichloro-pyridin-4-yl)-[4-Fluoro-3-(7-morpholin-4-yl-quinazolin-4-yl)phenyl]-methanol] | 500 to 5000 | –
3 | COc1ccnnc1C(O)c1ccc(F)c(-c2ncnc3cc(N4CCOCC4)ccc23)c1 (stereo not drawn) [Example 18, [4-Fluoro-3-(7-morpholin-4-yl-quinazolin-4-yl)phenyl]-(4-methoxy-pyridazin-3-yl)methanol] | 500 to 5000 | –
4 | OC(c1ccc2nccn2n1)c1cc(-c2ncnc3cc(N4CCOCC4)ccc23)c(F)cc1F (stereo not drawn) [Example 21, [2,4-Difluoro-5-(7-morpholin-4-yl-quinazolin-4-yl)phenyl]-imidazo[1,2-b]pyridazin-6-ylmethanol] | – | < 500
5 | COc1cnc(Cl)c(C(O)c2ccc(F)c(-c3ncnc4cc(N5CCOCC5)ccc34)c2)c1 (stereo not drawn) [Example 22, (2-Chloro-5-methoxy-pyridin-3-yl)-[4-fluoro-3-(7-morpholin-4-yl-quinazolin-4-yl)phenyl]-methanol] | < 500 | –
6 | COc1ncc(Cl)nc1C(O)c1ccc(F)c(-c2ncnc3cc(N4CCOCC4)ccc23)c1 (stereo not drawn) [Example 25, (6-Chloro-3-methoxy-pyrazin-2-yl)-[4-fluoro-3-(7-morpholin-4-yl-quinazolin-4-yl)phenyl]-methanol] | < 500 | –
7 | COc1cnc(Cl)c(C(O)c2ccc(F)c(-c3ncnc4cc(N5CCOCC5)ccc34)c2)n1 (stereo not drawn) [Example 26, (3-Chloro-6-methoxy-pyrazin-2-yl)-[4-fluoro-3-(7-morpholin-4-yl-quinazolin-4-yl)phenyl]-methanol] | < 500 | –
8 | O[C@H](c1ccc(F)c(-c2ncnc3cc(N4CCOCC4)ccc23)c1)c1nccnc1Cl [Example 27, (R)-(3-Chloro-pyrazin-2-yl)-[4-fluoro-3-(7-morpholin-4-yl-quinazolin-4-yl)phenyl]-methanol] | < 500 | –
9 | O[C@@H](c1ccc(F)c(-c2ncnc3cc(N4CCOCC4)ccc23)c1)c1nccnc1Cl [Example 28, (S)-(3-Chloro-pyrazin-2-yl)-[4-fluoro-3-(7-morpholin-4-yl-quinazolin-4-yl)phenyl]-methanol] | 5000 to 10000 | –
10 | OC(c1cccnn1)c1cc(-c2ncnc3cc(N4CCOCC4)ccc23)c(F)cc1Cl (stereo not drawn) [Example 30, [2-Chloro-4-fluoro-5-(7-morpholin-4-yl-quinazolin-4-yl)phenyl]-pyridazin-3-ylmethanol] | – | < 500
11 | COc1cnc(C(O)c2ccc(F)c(-c3ncnc4cc(N5CCOCC5)ccc34)c2)c(Cl)c1 (stereo not drawn) [Example 31, (3-Chloro-5-methoxy-pyridin-2-yl)-[4-fluoro-3-(7-morpholin-4-yl-quinazolin-4-yl)phenyl]-methanol] | < 500 | –
12 | OC(c1ccc(F)c(-c2ncnc3cc(N4CCOCC4)ccc23)c1)c1nccnc1OC1COC1 (stereo not drawn) [Example 32, [4-fluoro-3-(7-morpholin-4-yl-quinazolin-4-yl)phenyl]-[3-(oxetan-3-yloxy)-pyrazin-2-yl]methanol] | 5000 to 10000 | –
13 | OC(c1ccc(F)c(-c2ncnc3cc(N4CCOCC4)ccc23)c1)c1cnccn1 (stereo not drawn) [Example 33, [4-Fluoro-3-(7-morpholin-4-yl-quinazolin-4-yl)phenyl]-pyrazin-2-ylmethanol] | 10000 to 30000 | –
14 | OC(c1cnccn1)c1cc(-c2ncnc3cc(N4CCOCC4)ccc23)c(F)cc1Cl (stereo not drawn) [Example 34, [2-Chloro-4-fluoro-5-(7-morpholin-4-yl-quinazolin-4-yl)phenyl]-pyrazin-2-ylmethanol] | 5000 to 10000 | –
15 | OC(c1ccc(F)c(-c2ncnc3cc(N4CCOCC4)ccc23)c1)c1nc(Cl)cnc1Cl (stereo not drawn) [Example 35, (3,6-Dichloro-pyrazin-2-yl)-[4-fluoro-3-(7-morpholin-4-yl-quinazolin-4-yl)phenyl]-methanol] | < 500 | –
16 | OC(c1ccnnc1)c1cc(-c2ncnc3cc(N4CCOCC4)ccc23)c(F)cc1Cl (stereo not drawn) [Example 36, [2-Chloro-4-fluoro-5-(7-morpholin-4-yl-quinazolin-4-yl)phenyl]-pyridazin-4-ylmethanol] | < 500 | –
17 | OC(c1ccc(F)c(-c2ncnc3cc(N4CCOCC4)sc23)c1)c1nccnc1Cl (stereo not drawn) [Example 37, (3-Chloropyrazin-2-yl)-[4-fluoro-3-(6-morpholin-4-ylthieno[3,2-d}pyrimidin-4-yl)phenyl]-methanol] | – | < 500
18 | COc1nccnc1C(O)c1ccc(F)c(-c2ncnc3cc(N4CCOCC4)ccc23)c1 (stereo not drawn) [Example 38, [4-Fluoro-3-(7-morpholin-4-yl-quinazolin-4-yl)phenyl]-(3-methoxy-pyrazin-2-yl)methanol] | – | < 500
19 | OC(c1ccn2nccc2n1)c1cc(-c2ncnc3cc(N4CCOCC4)ccc23)c(F)cc1Cl (stereo not drawn) [Example 39, [2-Chloro-4-fluoro-5-(7-morpholin-4-yl-quinazolin-4-yl)phenyl]-pyrazolo[1,5-a]-pyrimidin-5-ylmethanol] | < 500 | –
20 | COc1nnc(C(O)c2cc(-c3ncnc4cc(N5CCOCC5)ccc34)c(F)cc2Cl)c2ccncc12 (stereo not drawn) [Example 40, [2-Chloro-4-fluoro-5-(7-morpholin-4-yl-quinazolin-4-yl)phenyl]-(4-methoxypyrido-[3,4-d}pyridazin-1-yl)-methanol] | 500 to 5000 | –
21 | OC(c1ccc(Cl)nn1)c1cc(-c2ncnc3cc(N4CCOCC4)ccc23)c(F)cc1Cl (stereo not drawn) [Example 41, [2-Chloro-4-fluoro-5-(7-morpholin-4-yl-quinazolin-4-yl)phenyl]-(6-chloro-pyridazin-3-yl)methanol] | < 500 | –
22 | OC(c1ccc(F)c(-c2ncnc3cc(N4CCOCC4)ccc23)c1)c1ncccc1Cl (stereo not drawn) [Example 42, (3-Chloro-pyridin-2-yl)-[4-fluoro-3-(7-morpholin-4-yl-quinazolin-4-yl)phenyl]-methanol] | < 500 | –
23 | CNC(=O)c1ccc(C(O)c2cc(-c3ncnc4cc(N5CCOCC5)ccc34)c(F)cc2Cl)nn1 (stereo not drawn) [Example 43, 6-{[2-Chloro-4-fluoro-5-(7-morpholin-4-yl-quinazolin-4-yl)phenyl]-hydroxymethyl}-pyridazine-3-carboxylic acid methylamide] | 500 to 5000 | –
24 | Cn1nc(C(O)c2cc(-c3ncnc4cc(N5CCOCC5)ccc34)c(F)cc2Cl)ccc1=O (stereo not drawn) [Example 45, 6-{[2-Chloro-4-fluoro-5-(7-morpholin-4-yl-quinazolin-4-yl)phenyl]-hydroxymethyl}-2-methyl-2H-pyridazin-3-one] | – | < 500
25 | Cc1cnnc(C(O)c2cc(-c3ncnc4cc(N5CCOCC5)ccc34)c(F)cc2Cl)c1 (stereo not drawn) [Example 46, [2-Chloro-4-fluoro-5-(7-morpholin-4-yl-quinazolin-4-yl)phenyl]-(5-methylpyridazin-3-yl)methanol] | 5000 to 10000 | –
26 | OC(c1cccnn1)c1cc(-c2ncnc3cc(N4CCOCC4)ccc23)c(F)cc1Cl (stereo not drawn) [Example 47, [2-Chloro-4-fluoro-5-(7-morpholin-4-yl-quinazolin-4-yl)phenyl]-pyridazin-3-ylmethanol] | – | < 500
27 | OC(c1cccnn1)c1cc(-c2ncnc3cc(N4CCOCC4)ccc23)c(F)cc1F (stereo not drawn) [Example 48, [2,4-Difluoro-5-(7-morpholin-4-yl-quinazolin-4-yl)phenyl]-pyridazin-3-ylmethanol] | 500 to 5000 | –
